SMILES strings stand for the structures.

Broadly, the IC50 is the concentration at which inhibition is half-maximal. Higher therefore signals lower potency. What is called Ki is the dissociation constant of the complex between target and ligand, obtained from inhibition or displacement. Usually inhibition stands for the drop in the measured response relative to a control, in per cent.

The target in one experiment is VR1/TRPV1 receptor (Homo sapiens, UniProt Q8NER1). In words: IC50 (human) after pH stimulus. The settings on record: for IC50: table 4. The format is cell-based.
The target in another experiment is T1, vanilloid receptor (VR1) (Homo sapiens, UniProt Q8NER1).
T1 construct: expressed in transfected cells; host or cells: CHO K1 cells (ECACC), stably transfected
In words: FLIPR Ca2+ influx assay on CHO K1 cells transfected with the VR1 gene (pharmacological method II). It is filed as cell-based. The note with it: table 4; capsaicin; read-out: Ki (human) Cap. The source says:
In this FLIPR assay, the influx of Ca^2+ is quantified with the assistance of a Ca^2+-sensitive dye (type Fluo-4, Molecular Probes Europe BV, Leiden, Netherlands) in a Fluorescent Imaging Plate Reader (FLIPR, Molecular Devices, Sunnyvale, USA) as described below.
II. Functional Investigations on the Vanilloid Receptor (VR1)
The agonistic or antagonistic action of the substances to be investigated on the vanilloid receptor (VR1) may also be determined with the following assay. According to this assay, the influx of Ca^2+ through the channel is quantified with the assistance of a Ca^2+-sensitive dye (type Fluo-4, Molecular Probes Europe BV, Leiden, Netherlands) in a Fluorescent Imaging Plate Reader (FLIPR, Molecular Devices, Sunnyvale, USA).
Chinese hamster ovary cells (CHO K1 cells, European Collection of Cell Cultures (ECACC), Great Britain) are stably transfected with the VR1 gene. For functional investigations, these cells are plated out onto poly-D-lysine-coated, black 96 well plates with a clear bottom (BD Biosciences, Heidelberg, Germany) at a density of 25,000 cells/well. The cells are incubated overnight at 37° C. and 5% CO2 in a culture medium (Ham's Nutrient Mixture F12, 10 vol. % FCS (foetal calf serum), 18 μg/mL L-proline). On the following day, the cells are incubated with Fluo-4 (Fluo-4 2 μM, Pluronic F127 0.01 vol. %, Molecular Probes in HBSS (Hank's buffered saline solution), Gibco Invitrogen GmbH, Karlsruhe, Germany) for 30 minutes at 37° C. The plates are then washed 3 times with HBSS buffer and, after a further 15 minutes' incubation at room temperature, used for […] measurement in the FLIPR. […] Quantification proceeds by measuring the highest fluorescence intensity (FC, fluorescence counts) over time.
The FLIPR protocol comprises 2 additions of substance. The substances to be tested (10 μM) are firstly pipetted onto the cells and Ca^2+ influx is compared with the control (capsaicin 10 μM) (% activation relative to the Ca^2+ signal after addition of 10 μM of capsaicin). After 5 minutes' incubation, 100 nM of capsaicin are added and the influx of Ca^2+ is again determined.
The percentage inhibition in comparison with the maximum achievable inhibition with 10 μM capsaicin is calculated.

[1] abbreviates: read-out: inhibition in percent, IC50 (human) after pH stimulus.
The mark [2] stands for this setting: @ 1 μM, ne = no effect, read-out: inhibition in percent, IC50 (human) after pH stimulus.

Sequence of VR1/TRPV1 receptor (Q8NER1 whole entry): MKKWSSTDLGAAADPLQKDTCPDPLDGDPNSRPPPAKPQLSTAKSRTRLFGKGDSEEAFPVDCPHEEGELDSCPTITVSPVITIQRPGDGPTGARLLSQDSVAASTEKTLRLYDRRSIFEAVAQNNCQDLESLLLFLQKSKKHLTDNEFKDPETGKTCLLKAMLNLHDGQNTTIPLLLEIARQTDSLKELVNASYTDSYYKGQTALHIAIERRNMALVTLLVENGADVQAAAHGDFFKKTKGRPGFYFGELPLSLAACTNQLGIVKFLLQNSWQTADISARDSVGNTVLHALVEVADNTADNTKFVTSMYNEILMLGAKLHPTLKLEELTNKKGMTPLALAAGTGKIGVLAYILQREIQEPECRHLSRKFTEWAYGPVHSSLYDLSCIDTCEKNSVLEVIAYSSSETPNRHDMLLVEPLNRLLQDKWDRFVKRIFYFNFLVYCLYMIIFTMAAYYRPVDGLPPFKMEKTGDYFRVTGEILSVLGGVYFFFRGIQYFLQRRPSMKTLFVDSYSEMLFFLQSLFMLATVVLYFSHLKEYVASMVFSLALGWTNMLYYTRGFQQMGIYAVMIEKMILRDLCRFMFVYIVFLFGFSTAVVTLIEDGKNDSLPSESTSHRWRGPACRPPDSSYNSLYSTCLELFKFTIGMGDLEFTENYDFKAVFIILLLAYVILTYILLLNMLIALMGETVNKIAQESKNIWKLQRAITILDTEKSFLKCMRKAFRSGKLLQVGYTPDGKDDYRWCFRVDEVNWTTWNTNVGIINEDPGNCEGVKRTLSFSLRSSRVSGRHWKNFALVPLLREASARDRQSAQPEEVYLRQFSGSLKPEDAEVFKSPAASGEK
T1 sequence (Q8NER1 whole entry): as above

In the case of `CC(C(=O)NCc1ccc(C(F)(F)F)nc1OC1CCC(C(F)(F)F)CC1)c1ccc(NS(C)(=O)=O)c(F)c1` (centres unmarked) [Example 339, 2-(3-fluoro-4-methylsulfonamido-phenyl)-N-[6-trifluoromethyl-2-(4-trifluoromethyl-cyclohexyloxy)-pyridin-3-ylmethyl]-propionamide], at VR1/TRPV1 receptor, the concentration for half-maximal inhibition (IC50) was 14 nM. Further, at vanilloid receptor (VR1), the Ki amounted to 0.3 nM. Regarding `CC(C(=O)NCc1ccc(C(F)(F)F)cc1-c1cccc(F)c1)c1ccc(NS(C)(=O)=O)c(F)c1` (centres unmarked) [Example 323, 2-(3-fluoro-4-methylsulfonamido-phenyl)-N-(3′-fluoro-5-trifluoromethyl-biphenyl-2-ylmethyl)-propionamide], the inhibition at 0.1 µM at VR1/TRPV1 receptor (setting [1]) is 15%. The inhibition at 1 µM on VR1/TRPV1 receptor (setting [2]) worked out at 41%. The Ki on vanilloid receptor (VR1) stood at 1.9 nM.

Turning to `CC(C(=O)NCc1ccc(C(F)(F)F)cc1-c1cccnc1)c1ccc(NS(C)(=O)=O)c(F)c1` (centres unmarked) [Example 46, 2-(3-fluoro-4-(methylsulfonamido)phenyl)-N-(2-(pyridin-3-yl)-4-(trifluoromethyl)benzyl)propanamide], on VR1/TRPV1 receptor (setting [1]), the inhibition at 5 µM was determined as 40%. At vanilloid receptor (VR1), the Ki was 59.4 nM.

In turn, `CCCCCc1nc(C(F)(F)F)ccc1CNC(=O)[C@@H](C)c1ccc(NS(C)(=O)=O)c(F)c1` [Example 144, (S)-2-(3-fluoro-4-methylsulfonamido-phenyl)-N-(2-pentyl-6-trifluoromethyl-pyridin-3-ylmethyl)-propionamide] displayed an IC50 against VR1/TRPV1 receptor of 146 nM. On vanilloid receptor (VR1), the inhibition constant (Ki) was 1 nM. The compound `CCCCCOc1nc(C(C)(C)C)ccc1CNC(=O)C(C)c1ccc(NS(C)(=O)=O)c(F)c1` (centres unmarked) [Example 328, N-(6-tert-butyl-2-pentyloxy-pyridin-3-ylmethyl)-2-(3-fluoro-4-methylsulfonamido-phenyl)-propionamide] came in with an IC50 at VR1/TRPV1 receptor of 128 nM. Further, the Ki on vanilloid receptor (VR1) is 0.8 nM. In the case of `CC(C(=O)NCc1ccc(C(F)(F)F)cc1N1CCN(C2CCCCC2)CC1)c1ccc(NS(C)(=O)=O)c(F)c1` (centres unmarked) [Compound 319], the inhibition at 1 µM on VR1/TRPV1 receptor (setting [2]) is 4%. `CC(C(=O)NCc1ccc(C(F)(F)F)nc1N1CCCCC1C)c1ccc(NS(C)(=O)=O)c(F)c1` (centres unmarked) [Compound 283]: at VR1/TRPV1 receptor (setting [1]), the inhibition at 0.01 µM amounted to 11% and the inhibition at 0.1 µM was found to be 43%. For the compound `CC(C(=O)NCc1ccc(C(F)(F)F)cc1-c1cccc(Cl)c1)c1ccc(NS(C)(=O)=O)c(F)c1` (centres unmarked) [Example 322, N-(3′-chloro-5-trifluoromethyl-biphenyl-2-ylmethyl)-2-(3-fluoro-4 methylsulfonamido-phenyl)-propionamide], the inhibition at 0.1 µM on VR1/TRPV1 receptor (setting [1]) was 25%. Moreover, the inhibition at 1 µM at VR1/TRPV1 receptor (setting [2]) was found to be 54%.

As for `CC1CC(C)CC(Oc2nc(C(F)(F)F)ccc2CNC(=O)C(C)c2ccc(NS(C)(=O)=O)c(F)c2)C1` (centres unmarked) [Example 377, N-((2-(3,5-dimethylcyclohexyloxy)-6-(trifluoromethyl)pyridin-3-yl)methyl)-2-(3-fluoro-4-(methylsulfonamido)phenyl)propanamide], the Ki at vanilloid receptor (VR1) turned out to be 3 nM.

Turning to `CC(C(=O)NCc1ccc(C(F)(F)F)nc1N1CCN(C)CC1)c1ccc(NS(C)(=O)=O)c(F)c1` (centres unmarked) [Compound 134], the inhibition at 1 µM at VR1/TRPV1 receptor (setting [2]) is 15%. For `CC(C(=O)NCc1ccc(C(F)(F)F)cc1-c1ccc(F)c(Cl)c1)c1ccc(NS(C)(=O)=O)c(F)c1` (centres unmarked) [Example 324, N-(3′-chloro-4′-fluoro-5-trifluoromethyl-biphenyl-2-ylmethyl)-2-(3-fluoro-4-methylsulfonamido-phenyl)-propionamide], the half-inhibitory concentration (IC50) against VR1/TRPV1 receptor came to 33 nM.

`CC(C(=O)NCc1ccc(C(F)(F)F)cc1OC1CCCCC1)c1ccc(NS(C)(=O)=O)c(F)c1` (centres unmarked) [Compound 238]: the inhibition at 0.01 µM at VR1/TRPV1 receptor (setting [1]) stood at 3%. Regarding `CCCCC(CCCC)Oc1nc(C(F)(F)F)ccc1CNC(=O)C(C)c1ccc(NS(C)(=O)=O)c(F)c1` (centres unmarked) [Compound 352], the inhibition at 1 µM on VR1/TRPV1 receptor (setting [2]) came out at 27%. The compound `CCCCCOc1nc(C(F)(F)F)ccc1CNC(=O)C(C)c1ccc(NS(C)(=O)=O)c(F)c1` (centres unmarked) [Example 375, 2-(3-fluoro-4-(methylsulfonamido)phenyl)-N-((2-(pentyloxy)-6-(trifluoromethyl)pyridin-3-yl)methyl)propanamide] returned an IC50 against VR1/TRPV1 receptor of 30 nM. With `CCCCOc1nc(C(F)(F)F)ccc1CNC(=O)C(C)c1ccc(NS(C)(=O)=O)c(C)c1` (centres unmarked) [Compound 256], at VR1/TRPV1 receptor (setting [1]), the inhibition at 0.01 µM turned out to be 15% and the inhibition at 0.1 µM came out at 43%.

Turning to `CC(C(=O)NCc1ccc(C(F)(F)F)nc1N1CCN(C2CCCCC2)CC1)c1ccc(NS(C)(=O)=O)c(F)c1` (centres unmarked) [Compound 260], the inhibition at 0.1 µM at VR1/TRPV1 receptor (setting [1]) was 8.5%.

For `CCOC(=O)c1cc(CNC(=O)C(C)c2ccc(NS(C)(=O)=O)c(F)c2)c(N2CCC(C)CC2)cc1C(F)(F)F` (centres unmarked) [Example 351, 5-{[2-(3-fluoro-4-methylsulfonamido-phenyl)-propionylamino]-methyl}-4-(4-methyl-piperidin-1-yl)-2-trifluoromethyl-benzoic acid ethyl ester], the Ki at vanilloid receptor (VR1) worked out at 44 nM.

`CCCN(CCC)c1nc(C(F)(F)F)ccc1CNC(=O)C(C)c1ccc(NS(C)(=O)=O)c(C)c1` (centres unmarked) [Compound 331]: at VR1/TRPV1 receptor (setting [1]), the inhibition at 0.1 µM turned out to be 18% and the inhibition at 5 µM was 22%. Moreover, the inhibition at 1 µM on VR1/TRPV1 receptor (setting [2]) turned out to be 26%. Take `CC(C)OC1CCN(c2nc(C(F)(F)F)ccc2CNC(=O)C(C)c2ccc(NS(C)(=O)=O)c(F)c2)CC1` (centres unmarked) [Compound 162]: the inhibition at 0.1 µM at VR1/TRPV1 receptor (setting [1]) is 31%. As to `CC(C(=O)NCc1ccc(C(F)(F)F)cc1N1CCN(c2ccc(C(F)(F)F)cc2)CC1)c1ccc(NS(C)(=O)=O)c(F)c1` (centres unmarked) [Compound 248], on VR1/TRPV1 receptor (setting [2]), the inhibition at 1 µM turned out to be 63%.

`Cc1cc(C(C)C(=O)NCc2ccc(C(F)(F)F)nc2N2CCC(C)CC2)ccc1NS(C)(=O)=O` (centres unmarked) [Compound 196]: at VR1/TRPV1 receptor (setting [1]), the inhibition at 0.01 µM is 6% and the inhibition at 0.1 µM worked out at 48%. On to `CC(C(=O)NCc1ccc(C(F)(F)F)nc1Nc1ccc(F)cc1)c1ccc(NS(C)(=O)=O)c(F)c1` (centres unmarked) [Compound 112], for which, at VR1/TRPV1 receptor (setting [2]), the inhibition at 1 µM came to 26%. Take `CCCCCCOc1nc(C(C)(C)C)ccc1CNC(=O)C(C)c1ccc(NS(C)(=O)=O)c(F)c1` (centres unmarked) [Compound 236]: the inhibition at 0.1 µM on VR1/TRPV1 receptor (setting [1]) stood at 2%. In the case of `CC(C)COc1nc(C(C)(C)C)ccc1CNC(=O)C(C)c1ccc(NS(C)(=O)=O)c(F)c1` (centres unmarked) [Compound 353], at VR1/TRPV1 receptor (@ 0.05 μM, read-out: inhibition in percent, IC50 (human) after pH stimulus), the inhibition at 0.05 µM is 18%. For the compound `CCCCCCOc1nc(C(F)(F)F)ccc1CNC(=O)C(C)c1ccc(NS(C)(=O)=O)c(C)c1` (centres unmarked) [Compound 257], on VR1/TRPV1 receptor (setting [1]), the inhibition at 0.01 µM was found to be 11% and the inhibition at 0.1 µM was determined as 63%.

As for `CC(C(=O)NCc1ccc(C(F)(F)F)nc1CCC(C)(C)C)c1ccc(NS(C)(=O)=O)c(F)c1` (centres unmarked) [Compound 263], at VR1/TRPV1 receptor (setting [1]), the inhibition at 0.01 µM was 4% and the inhibition at 0.1 µM amounted to 52%. As for `CC(C(=O)NCc1c(CO)cc(C(C)(C)C)nc1OC1CCCC1)c1ccc(NS(C)(=O)=O)c(F)c1` (centres unmarked) [Example 261, N-(6-tert-butyl-2-cyclopentyloxy-4-hydroxymethyl-pyridin-3-ylmethyl)-2-(3-fluoro-4-methylsulfonamido-phenyl)-propionamide], on VR1/TRPV1 receptor (@ 1 μM, ne = no effect), the “inhibition in percent, IC50 (human) after pH stimulus” value is listed as “ne @ 1 μM”.

`CCC(C(=O)NCc1ccc(C(F)(F)F)nc1N1CCC(C)CC1)c1ccc(NS(C)(=O)=O)c(F)c1` (centres unmarked) [Example 347, 2-(3-fluoro-4-methylsulfonamido-phenyl)-N-(4-methyl-6′-trifluoromethyl-3,4,5,6-tetrahydro-2H-[1,2′]bipyridinyl-3′-ylmethyl)-butyramide]: the inhibitory constant (Ki) on vanilloid receptor (VR1) was 1.6 nM.

`CC1CCCN(c2nc(C(F)(F)F)ccc2CNC(=O)C(C)c2ccc(NS(C)(=O)=O)c(F)c2)C1` (centres unmarked) [Compound 282]: at VR1/TRPV1 receptor (setting [1]), the inhibition at 0.01 µM was determined as 12% and the inhibition at 0.1 µM was found to be 55%.

For the compound `COc1ccc(-c2nc(C(F)(F)F)ccc2CNC(=O)C(C)c2ccc(NS(C)(=O)=O)c(F)c2)cc1OC` (centres unmarked) [Compound 326], the inhibition at 1 µM at VR1/TRPV1 receptor (setting [2]) turned out to be 8%. Further, the inhibition at 5 µM at VR1/TRPV1 receptor (setting [1]) was found to be 32%. For `CC(C(=O)NCc1ccc(C(F)(F)F)nc1N1CCC(CN(C)C)(c2ccccc2)CC1)c1ccc(NS(C)(=O)=O)c(F)c1` (centres unmarked) [Compound 259], the inhibition at 0.1 µM on VR1/TRPV1 receptor (setting [1]) amounted to 0%.
